Laboratory results published in patent US8679766B2, “E-cadherin as a biomarker of gastroesophageal reflux disease” (The University of North Carolina at Chapel Hill, priority 2009, dated 2014).
Entries after “also recorded” stand apart in the source; their conditions may differ. Read-outs that look alike come from different tables or passages of the source.

Tests used:
[1] = tested on: cleavage of E-cad in rabbit EE; test: Acid-activated cleavage of E-cad in Ussing-chambered rabbit EE, W-blot for CTF with C-terminal antibody 4A2C7; type: cell-based
rabbit EE [2] = details: cited from earlier work
rabbit EE [3] = test: Barrier breaker search: rabbit EE in U-chambers, monitoring RT (marker of PCP) and Isc; type: cell-based
Description: Agents that increase paracellular permeability (PCP) in EE are potential contributors to GERD by enabling diffusion of luminal acid into the intercellular space. Therefore, substances were sought within the refluxate, meals and inflammation that could ‘break the barrier’. This was done by exposing rabbit EE in U-chambers to candidate inflammatory agents while both monitoring RT, as a marker of PCP, and Isc (short circuit current), as a marker of active transport. The inflammatory agents were selected based on presence in EE or on reports that they can break the barrier in other epithelia (47-60).

esophagitis [4] = details: patients with duodeno-esophageal reflux post-gastrectomy; cited from earlier work
esophagitis [5] = details: rat model of reflux; cited from earlier work
rabbit EE [6] = test: Ca++-switch technique: junctional opening and resealing (RT) in EE; type: cell-based
Description: Below the TJ is the adherens junction (AJ), a structure that encircles the cell and initiates and stabilizes cell-cell adhesion, and by doing so, the AJ supports the barrier function of the TJ (36, 37). The single-pass, transmembrane protein of the AJ is the Ca^++-dependent E-cadherin (E-cad) and this connects directly to a group of catenins (α-catenin, β-catenin, p120-catenin), which in turn connect E-cad to the cytoskeleton via α-catenin's interaction with actin microfilaments, to the microtubules via p120-catenin's interaction with PLEKHA7/nezha and tubulins (38, 39), and to the TJ via p120-catenin's binding to ZO-136. Cell-cell adhesion by E-cad results from the Ca^++-dependent, homotypic, association between the extracellular domains of neighboring cells. Indeed, the Ca^++ sensitivity is so characteristic that it forms the basis of the ‘Ca^++-switch technique’ where Ca^++ removal from both bathing solutions results in junctional opening (decline in RT) and its restoration results in ‘resealing’ (recovery of RT) (40). This method was used to define the role of E-cad in junctional adhesion in EE (41). Removing Ca^++ lowered RT by about 35% over 2 hrs while restoration returned RT to baseline (41). […] Further, resealing was also shown to be dependent on E-cad because it was inhibited by antibodies (HECD-1, DECMA-1) or small synthetic peptides to its extracellular (N-terminal) domain of E-cad, but not by […] antibodies (4A2C7) to its intracellular (C-terminal) domain (41).
E-cadherin is a component of the adherens junction, a structure known to be important in junctional barrier function in most epithelia, including that of the esophagus (36, 41, 121). It is a single-span, transmembrane protein whose carboxy (C)-terminus resides in the cytoplasm and whose amino (N)-terminus resides in the intercellular space. The N-terminus of E-cadherin molecules from membranes of adjacent cells form a barrier by calcium-dependent binding to each other within the intercellular space. Since the protein bridges of E-cadherin both encircle the cell membrane and support the adhesion of the bridging proteins (occludin and claudins) forming the tight junction, they play an integral role in establishing junctional (electrical) resistance and controlling junctional permeability. This role for E-cadherin in (rabbit) EE has recently been shown in the Ussing chamber using the calcium-switch technique (41).

rabbit EE [7] = test: Junctional opening (RT) of EE by exposure to luminal HCl pH 1.6; type: cell-based; details: microtubule stabilizer taxol
[8] = γ-secretase inhibitor 10 μM, acid-exposed EE

C[C@H](NC(=O)Cc1cc(F)cc(F)c1)C(=O)N[C@H](C(=O)OC(C)(C)C)c1ccccc1 [DAPT75, DAPT]
cleavage of E-cad [1, 8]: did not block cleavage
pattern of E-cad cleavage (CTFs on W-blot) [1, 8]: yielding two CTFs instead of one

O=S(=O)(O)CCN1CCN(CCO)CC1 [HEPES]
luminal acid-induced increase in PCP (reduction in RT) (rabbit EE [2]; serosal HEPES): without preventing the luminal acid-induced increase in PCP
luminal acid-induced cell necrosis (rabbit EE [2]; serosal buffer replacing bathing solution bicarbonate): prevented

CNC(=O)[C@@H](NC(=O)[C@H](CC(C)C)[C@H](O)C(=O)NO)C(C)(C)C [Marimastat]
cleavage of E-cad ([1]; Marimastat 10 μM, luminal HCl pH 1.1 for 30 min or serosal HCl pH 2.0 for 5 min): blocked; also recorded: abolition

CC(=O)Nc1ccc(C=Cc2ccc(N=C=S)cc2S(=O)(=O)O)c(S(=O)(=O)O)c1 [SITS, 4-acetoamido-4′-isothiocyanostilbene-2,2′-disulfonic acid]
cell swelling and necrosis (rabbit EE [2]; serosal HCl pH 2.0, serosal pretreatment 4 mM): prevented

CCO [alcohol]
breaks the barrier (RT as marker of PCP) (rabbit EE [3]; at pH 7.4): barrier breakers

CN(C)C(=O)COC(=O)Cc1ccc(OC(=O)c2ccc(NC(=N)N)cc2)cc1 [camostat mesilate]
esophagitis (esophagitis [4]): reduce esophagitis
esophagitis (esophagitis [5]): reduce esophagitis

COc1cc2c(c(OC)c1OC)-c1ccc(OC)c(=O)cc1[C@@H](NC(C)=O)CC2 [colchicine]
junctional resealing during the Ca++-switch technique (rabbit EE [6]; microtubule destabilizer): inhibited

C=C1[C@@H](C)[C@H]2[C@H](Cc3ccccc3)NC(=O)[C@]23[C@H](OC(C)=O)/C=C/[C@@](C)(O)C(=O)[C@@H](C)C/C=C/[C@H]3[C@@H]1O [cytochalasin D]
junctional resealing during the Ca++-switch technique (rabbit EE [6]; microfilament destabilizer, 2 uM): inhibited

C[C@H](CCC(=O)NCCS(=O)(=O)O)[C@H]1CC[C@H]2[C@@H]3[C@H](O)C[C@@H]4C[C@H](O)CC[C@]4(C)[C@H]3C[C@H](O)[C@]12C [taurocholic acid]
breaks the barrier (RT as marker of PCP) (rabbit EE [3]; at pH 2): barrier breakers

CC(=O)O[C@H]1C(=O)[C@@]2(C)[C@H]([C@H](OC(=O)c3ccccc3)[C@]3(O)C[C@H](OC(=O)[C@H](O)[C@@H](NC(=O)c4ccccc4)c4ccccc4)C(C)=C1C3(C)C)[C@]1(OC(C)=O)CO[C@@H]1C[C@@H]2O [taxol]
junctional opening by Ca++-free soln (rabbit EE [6]; microtubule stabilizer, 50 μM): inhibited
junctional resealing (rabbit EE [6]; taxol, data normalized at the end of junctional opening in Ca++-free solution): Inhibition of resealing
junctional opening by exposure to luminal pH 1.6 (rabbit EE [7]): inhibit junctional opening

trypsin: barrier breaker at pH 7.4, can be present within refluxates of near-neutral pH
breaks the barrier (RT as marker of PCP) (rabbit EE [3]; at pH 7.4): barrier breakers
junctional damage by luminal trypsin (DIS, E-cad cleavage) (rabbit EE [3]; luminal exposure): results in both DIS (61) and cleavage of E-cad's extracellular domain
